The target in series [1] is T1, Bcl-2-like protein 1 (Homo sapiens, UniProt Q07817). Kind of series: Inhibition of interaction between GST-tagged Bcl-xl and Bak by fluorescence polarization assay. (In fluorescence polarisation assays a small probe gives low polarisation when free and higher when bound to something large.)
The nature of series [2]: Chemical stability assessed as half life by HPLC. In kind it is physicochemical.
For another series, the system named is A549. Nature of the series: Cytotoxicity against human A549 cells. In kind it is functional, cell-based.
Series [3] addresses T1, Bcl-2-like protein 1. Kind of series: Inhibition of interaction between GST-tagged Bcl-xl and Bak by surface plasmon resonance assay. On the technique in general: SPR reads the build-up and loss of mass on a sensor chip optically.
For series [4], the target named is T1, Bcl-2-like protein 1. Kind of series: Inhibition of interaction between Bcl-xl and Bak by surface plasmon resonance assay.
The next series concerns Staphylococcus aureus. Nature of the series: Antibacterial activity against methicillin-resistant Staphylococcus aureus STA MU50. In kind it is functional.
Another series deals with HepG2. Kind of series: Cytotoxicity against human HepG2 cells. Type of series: functional.

The Emax is the size of the effect at its maximum, as opposed to the concentration needed. Broadly, the IC50 is the midpoint of a concentration-inhibition curve. What is called half-life is the time needed for the level to fall by half in the phase considered. For orientation: Kd means the concentration at which binding is half-saturated. The MIC is the smallest concentration in the dilution series that meets the test's criterion for growth inhibition. High values mean a less susceptible organism, low ones a more susceptible organism. Broadly, the GI50 is the concentration that inhibits growth by half. A high value points to lower sensitivity of the cells.

≈ marks a conversion by molar mass, not a printed value.

T1 sequence (Q07817 whole entry): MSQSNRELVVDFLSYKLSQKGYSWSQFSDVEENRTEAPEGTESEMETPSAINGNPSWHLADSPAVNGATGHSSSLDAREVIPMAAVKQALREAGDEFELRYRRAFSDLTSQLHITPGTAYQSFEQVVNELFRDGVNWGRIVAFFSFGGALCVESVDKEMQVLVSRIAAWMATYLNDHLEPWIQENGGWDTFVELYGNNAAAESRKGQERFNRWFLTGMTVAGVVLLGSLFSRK

On to `CC1=C2O[C@]34OC(C)(C)O[C@@H]3C2=C(C(=O)C1=O)[C@@H]1O[C@H](CC[C@H](C)/C=C(\C)C[C@@H](C)C[C@@H]4C)[C@H](C)[C@H](O)[C@H]1C`, for which the maximum response (Emax) on Bcl-2-like protein 1 [1] was 22%. The results for the IC50 at Bcl-2-like protein 1 [1] (read-out: IC50) and in the series on A549 were 9.5 µM and 14 µM, respectively. Also, the half-life in series [2] was < 2340 min.
Regarding `Cc1cc2c(C(C)C)c(O)c(O)c(C=O)c2c(O)c1-c1c(C)cc2c(C(C)C)c(O)c(O)c(C=O)c2c1O` [GOSSYPOL], the values for the Kd at Bcl-2-like protein 1 [3] and at Bcl-2-like protein 1 [4] (read-out: Kd) were 1.71 µM and 338 µM, respectively.
In turn, `CC1=C2O[C@]3(O)C=C2C(=C(O)C1=O)[C@@H]1O[C@H](CC[C@H](C)/C=C(\C)C[C@@H](C)C[C@@H]3C)[C@H](C)[C@H](O)[C@H]1C` [KENDOMYCIN] displayed a maximum response (Emax) at Bcl-2-like protein 1 [1] of 70%. Besides, the 50% inhibitory concentration (IC50) at Bcl-2-like protein 1 [1] (read-out: IC50) amounted to 12.3 µM; with A549, 16 µM. In the series on Staphylococcus aureus, 3.9 µM (≈ 1.9 µg/mL) was the least that counted as inhibitory (MIC). The Kd amounted to 528 µM on Bcl-2-like protein 1 [3] and 1830 µM at Bcl-2-like protein 1 [4] (read-out: Kd). The half-life in series [2] is < 120 min. For the same compound, the concentration for 50% growth inhibition (GI50) with HepG2 was < 100 nM.
On to `CC1=C2O[C@]34OC5(CCCCC5)O[C@@H]3C2=C(C(=O)C1=O)[C@@H]1O[C@H](CC[C@H](C)/C=C(\C)C[C@@H](C)C[C@@H]4C)[C@H](C)[C@H](O)[C@H]1C`, for which the half-maximal inhibitory concentration (IC50) result is “Not Active” against Bcl-2-like protein 1 [1] and 24 µM in the series with A549.
As to `CO[C@@]12C=C3C(=C(C)C(=O)C(O)=C3[C@@H]3O[C@H](CC[C@H](C)/C=C(\C)C[C@@H](C)C[C@@H]1C)[C@H](C)[C@H](O)[C@H]3C)O2`, the 50% inhibitory concentration (IC50) result is “Not Active” against Bcl-2-like protein 1 [1] and 9 µM in the series on A549.
The compound `CC1=C(O)C(=O)C2=C(C1=O)C(O)C(=O)[C@@H](C)C[C@H](C)C/C(C)=C/[C@@H](C)CC[C@H]1O[C@@H]2[C@H](C)[C@@H](O)[C@H]1C` (some centres undefined) returned a maximum response (Emax) on Bcl-2-like protein 1 [1] of 35%. Further, the values for the IC50 at Bcl-2-like protein 1 [1] (read-out: IC50) and in the series with A549 were 230 µM and 25 µM, respectively. The results for the dissociation constant Kd at Bcl-2-like protein 1 [3] and at Bcl-2-like protein 1 [4] were 10800 µM and “Not Active”, respectively.
In turn, `CC1=C2O[C@]34OC5(CCN(C)CC5)O[C@@H]3C2=C(C(=O)C1=O)[C@@H]1O[C@H](CC[C@H](C)/C=C(\C)C[C@@H](C)C[C@@H]4C)[C@H](C)[C@H](O)[C@H]1C` came in with an Emax on Bcl-2-like protein 1 [1] of 66%. The figures for the half-inhibitory concentration (IC50) on Bcl-2-like protein 1 [1] (read-out: IC50) and in the series on A549 were 5 µM and 14 µM, respectively. For the same compound, the values for the equilibrium dissociation constant (Kd) on Bcl-2-like protein 1 [3] and on Bcl-2-like protein 1 [4] (read-out: Kd) were 377 µM and 399 µM, respectively. Also, the half-life in series [2] was < 1380 min.

These data come from ChEMBL document CHEMBL1143433, “Interaction of kendomycin and semi-synthetic analogues with the anti-apoptotic protein Bcl-xl” (Bioorg Med Chem Lett, 2008).
